Measurements from the NIST ThermoML archive (doi:10.1021/je060271a).
Several values for one entry are separate records, joined by “and”; a condition that tells them apart may be missing. Equal values may be shown once.

Conditions: Liquid, Vibrating tube method

CCCCC(=O)OCC(COC(=O)CCCC)(COC(=O)CCCC)COC(=O)CCCC [pentaerythritol tetrapentanoate]
Conditions | mass density
283.15 K, 33510 kPa | 1045.5 kg/m3
283.15 K, 33550 kPa | 1045.6 kg/m3
283.15 K, 33599 kPa | 1045.6 kg/m3
283.15 K, 33639 kPa | 1045.6 kg/m3
283.15 K, 33681 kPa | 1045.6 kg/m3
283.15 K, 33731 kPa | 1045.6 kg/m3
283.15 K, 33772 kPa | 1045.7 kg/m3
283.15 K, 33815 kPa | 1045.7 kg/m3
283.15 K, 33865 kPa | 1045.8 kg/m3
283.15 K, 33908 kPa | 1045.8 kg/m3
283.15 K, 33951 kPa | 1045.8 kg/m3
283.15 K, 34004 kPa | 1045.7 kg/m3
283.15 K, 34048 kPa | 1045.8 kg/m3
283.15 K, 34093 kPa | 1045.7 kg/m3
283.15 K, 34144 kPa | 1045.8 kg/m3
283.15 K, 34173 kPa | 1046 kg/m3
283.15 K, 34198 kPa | 1045.9 kg/m3
283.15 K, 34220 kPa | 1046 kg/m3
283.15 K, 34242 kPa | 1045.8 kg/m3
283.15 K, 34265 kPa | 1045.9 kg/m3
283.15 K, 34290 kPa | 1045.9 kg/m3
283.15 K, 34312 kPa | 1046 kg/m3
283.15 K, 34335 kPa | 1046 kg/m3
283.15 K, 34364 kPa | 1045.9 kg/m3
283.15 K, 34387 kPa | 1045.9 kg/m3
283.15 K, 34410 kPa | 1046 kg/m3
283.15 K, 34438 kPa | 1046 kg/m3
283.15 K, 34461 kPa | 1046 kg/m3
283.15 K, 34485 kPa | 1046 kg/m3
283.15 K, 34516 kPa | 1046.1 kg/m3
283.15 K, 34542 kPa | 1046 kg/m3
283.15 K, 34572 kPa | 1046.1 kg/m3
283.15 K, 34604 kPa | 1046 kg/m3
283.15 K, 34620 kPa | 1046.1 kg/m3
283.15 K, 34636 kPa | 1046 kg/m3
283.15 K, 34638 kPa | 1046.3 kg/m3
283.15 K, 34639 kPa | 1046.1 kg/m3
283.16 K, 25316 kPa | 1041.3 kg/m3
303.15 K, 106.42 kPa | 1010.9 kg/m3
303.15 K, 106.59 kPa | 1010.8 kg/m3 and 1010.9 kg/m3
303.15 K, 106.6 kPa | 1010.9 kg/m3 and 1010.8 kg/m3
303.15 K, 106.76 kPa | 1010.9 kg/m3
303.15 K, 106.77 kPa | 1010.9 kg/m3
303.15 K, 106.94 kPa | 1010.9 kg/m3 and 1010.8 kg/m3
303.15 K, 107.11 kPa | 1010.9 kg/m3
303.15 K, 107.29 kPa | 1010.9 kg/m3
303.15 K, 108.17 kPa | 1010.9 kg/m3
303.15 K, 109.2 kPa | 1010.9 kg/m3
303.15 K, 110.59 kPa | 1010.9 kg/m3
303.15 K, 112.86 kPa | 1010.8 kg/m3
303.15 K, 117.2 kPa | 1011 kg/m3
303.15 K, 123.99 kPa | 1010.9 kg/m3
303.15 K, 133.19 kPa | 1010.9 kg/m3
303.15 K, 144.48 kPa | 1010.9 kg/m3
303.15 K, 156.14 kPa | 1010.9 kg/m3
303.15 K, 171.79 kPa | 1010.8 kg/m3
303.15 K, 193.18 kPa | 1011 kg/m3
303.15 K, 228.98 kPa | 1011 kg/m3
303.15 K, 269.29 kPa | 1010.9 kg/m3
303.15 K, 314.67 kPa | 1011 kg/m3
303.15 K, 395.83 kPa | 1011.2 kg/m3
303.15 K, 513.49 kPa | 1011.2 kg/m3
303.15 K, 630.95 kPa | 1011.3 kg/m3
303.15 K, 647.46 kPa | 1011.3 kg/m3
303.15 K, 648.16 kPa | 1011.3 kg/m3
303.15 K, 649.02 kPa | 1011.3 kg/m3
303.15 K, 649.71 kPa | 1011.3 kg/m3
303.15 K, 650.58 kPa | 1011.3 kg/m3
303.15 K, 651.45 kPa | 1011.3 kg/m3
303.15 K, 652.32 kPa | 1011.2 kg/m3
303.15 K, 652.67 kPa | 1011.3 kg/m3
303.15 K, 653.36 kPa | 1011.3 kg/m3
303.15 K, 654.41 kPa | 1011.3 kg/m3
303.15 K, 654.92 kPa | 1011.2 kg/m3
303.15 K, 655.97 kPa | 1011.2 kg/m3
303.15 K, 657.2 kPa | 1011.2 kg/m3
303.15 K, 657.72 kPa | 1011.4 kg/m3
303.15 K, 658.58 kPa | 1011.3 kg/m3
303.15 K, 659.27 kPa | 1011.1 kg/m3
303.15 K, 660.31 kPa | 1011.3 kg/m3
303.15 K, 661.18 kPa | 1011.3 kg/m3
303.15 K, 661.53 kPa | 1011.3 kg/m3
303.15 K, 662.58 kPa | 1011.2 kg/m3
303.15 K, 664.14 kPa | 1011.4 kg/m3
303.15 K, 666.75 kPa | 1011.3 kg/m3
303.15 K, 667.79 kPa | 1011.3 kg/m3
303.15 K, 668.65 kPa | 1011.3 kg/m3
303.15 K, 669.35 kPa | 1011.2 kg/m3
303.15 K, 670.22 kPa | 1011.2 kg/m3
303.15 K, 675.62 kPa | 1011.2 kg/m3
303.15 K, 675.96 kPa | 1011.2 kg/m3
303.15 K, 676.49 kPa | 1011.4 kg/m3
303.15 K, 677.36 kPa | 1011.3 kg/m3
303.15 K, 678.05 kPa | 1011.3 kg/m3
303.15 K, 679.27 kPa | 1011.2 kg/m3
303.15 K, 680.14 kPa | 1011.3 kg/m3
303.15 K, 681.01 kPa | 1011.3 kg/m3
303.15 K, 681.71 kPa | 1011.3 kg/m3
303.15 K, 682.41 kPa | 1011.2 kg/m3
303.15 K, 685.7 kPa | 1011.3 kg/m3
303.15 K, 686.57 kPa | 1011.3 kg/m3
303.15 K, 688.83 kPa | 1011.2 kg/m3
303.15 K, 689.69 kPa | 1011.2 kg/m3
303.15 K, 690.56 kPa | 1011.4 kg/m3
303.15 K, 691.43 kPa | 1011.3 kg/m3
303.15 K, 692.3 kPa | 1011.4 kg/m3
303.15 K, 693.35 kPa | 1011.3 kg/m3
303.15 K, 694.56 kPa | 1011.3 kg/m3
303.15 K, 695.08 kPa | 1011.3 kg/m3
303.15 K, 696.12 kPa | 1011.3 kg/m3
303.15 K, 697.16 kPa | 1011.3 kg/m3
303.15 K, 698.02 kPa | 1011.3 kg/m3
303.15 K, 698.55 kPa | 1011.3 kg/m3
303.15 K, 699.59 kPa | 1011.3 kg/m3
303.15 K, 703.59 kPa | 1011.2 kg/m3
303.15 K, 704.11 kPa | 1011.3 kg/m3
303.15 K, 705.15 kPa | 1011.3 kg/m3
303.15 K, 706.21 kPa | 1011.3 kg/m3
303.15 K, 707.07 kPa | 1011.3 kg/m3
303.15 K, 708.28 kPa | 1011.3 kg/m3
303.15 K, 709.15 kPa | 1011.2 kg/m3
303.15 K, 710.02 kPa | 1011.3 kg/m3
303.15 K, 711.24 kPa | 1011.3 kg/m3
303.15 K, 711.93 kPa | 1011.4 kg/m3
303.15 K, 712.98 kPa | 1011.3 kg/m3
303.15 K, 713.84 kPa | 1011.2 kg/m3
303.15 K, 714.72 kPa | 1011.3 kg/m3
303.15 K, 715.75 kPa | 1011.3 kg/m3
303.15 K, 716.62 kPa | 1011.3 kg/m3
303.15 K, 717.84 kPa | 1011.3 kg/m3
303.15 K, 719.05 kPa | 1011.4 kg/m3
303.15 K, 720.1 kPa | 1011.3 kg/m3
303.15 K, 720.79 kPa | 1011.3 kg/m3
303.15 K, 721.67 kPa | 1011.2 kg/m3
303.15 K, 722.71 kPa | 1011.3 kg/m3
303.15 K, 723.76 kPa | 1011.3 kg/m3
303.15 K, 724.45 kPa | 1011.3 kg/m3
303.15 K, 725.83 kPa | 1011.4 kg/m3
303.15 K, 726.87 kPa | 1011.3 kg/m3
303.15 K, 727.92 kPa | 1011.4 kg/m3
303.15 K, 728.79 kPa | 1011.3 kg/m3
303.15 K, 730.17 kPa | 1011.2 kg/m3
303.15 K, 730.7 kPa | 1011.4 kg/m3
303.15 K, 731.58 kPa | 1011.3 kg/m3
303.15 K, 733.65 kPa | 1011.3 kg/m3
303.15 K, 734.7 kPa | 1011.3 kg/m3
303.15 K, 735.91 kPa | 1011.2 kg/m3
303.15 K, 736.78 kPa | 1011.2 kg/m3
303.15 K, 737.82 kPa | 1011.3 kg/m3
303.15 K, 739.04 kPa | 1011.4 kg/m3
303.15 K, 740.26 kPa | 1011.3 kg/m3
303.15 K, 741.3 kPa | 1011.3 kg/m3
303.15 K, 742.16 kPa | 1011.4 kg/m3
303.15 K, 743.2 kPa | 1011.3 kg/m3
303.15 K, 744.08 kPa | 1011.2 kg/m3
303.15 K, 745.47 kPa | 1011.3 kg/m3
303.15 K, 746.33 kPa | 1011.3 kg/m3
303.15 K, 747.56 kPa | 1011.3 kg/m3
303.15 K, 748.76 kPa | 1011.4 kg/m3
303.15 K, 749.63 kPa | 1011.3 kg/m3
303.15 K, 750.5 kPa | 1011.4 kg/m3
